The test has as its target T1, TGFβRI (Homo sapiens, UniProt P36897).
T1 construct: gene TGFBR1
T1 sequence (P36897 34-503): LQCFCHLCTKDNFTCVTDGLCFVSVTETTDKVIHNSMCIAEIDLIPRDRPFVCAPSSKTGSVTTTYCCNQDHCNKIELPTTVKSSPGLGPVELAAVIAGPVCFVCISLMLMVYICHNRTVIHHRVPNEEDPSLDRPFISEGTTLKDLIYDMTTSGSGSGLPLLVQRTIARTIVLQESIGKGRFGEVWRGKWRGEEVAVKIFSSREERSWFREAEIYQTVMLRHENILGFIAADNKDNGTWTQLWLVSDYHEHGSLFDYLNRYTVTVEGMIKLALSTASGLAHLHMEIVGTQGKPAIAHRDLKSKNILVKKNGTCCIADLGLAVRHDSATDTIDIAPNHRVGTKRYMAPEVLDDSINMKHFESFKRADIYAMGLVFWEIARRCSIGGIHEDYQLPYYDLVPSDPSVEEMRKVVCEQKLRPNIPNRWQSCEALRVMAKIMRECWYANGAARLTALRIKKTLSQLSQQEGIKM
Put plainly: ADP-Glo kinase assay. It counts as biochemical.

Regarding `CC(C)(O)CNc1nc(Nc2ccncc2F)nc(-c2cccc(C(F)(F)F)n2)n1` [W8, 1-((4-((3-Fluoropyridin-4-yl)Amino)-6-(6-(Trifluoromethyl)Pyridin-2-yl)-1,3,5-Triazin-2-yl)Amino)-2-Methylpropan-2-ol], the midpoint of inhibition, the IC50, lay at 10.8 µM.

The IC50 is the concentration needed to halve the response being measured.

The values are drawn from PMC9653795, “Structure-Guide Design and Optimization of Potential Druglikeness Inhibitors for TGFβRI with the Pyrrolopyrimidine Scaffold” (Pharmaceuticals, 2022).
